Measurements as given in ChEMBL document CHEMBL1155907, “Structure-activity relationship of flavonoids as influenza virus neuraminidase inhibitors and their in vitro anti-viral activities” (Bioorg Med Chem, 2008).

Columns and labels:
Neuraminidase [1] = target: T1, Neuraminidase (Influenza A virus, UniProt B4URF0)
Neuraminidase [2] = target: T1, Neuraminidase; parameters: species or system Influenza A virus (A/Puerto Rico/8/1934(H1N1))
Neuraminidase [3] = target: T1, Neuraminidase; parameters: species or system Influenza B virus
[4] = Cytotoxicity against MDCK cells by MTT assay; format: cell-based, Canis lupus familiaris; conditions: dog
Influenza A virus = test: Antiviral activity against Influenza A virus Jinan/15/90 H3N2 assessed as reduction of virus-induced cytopathic effect; format: functional, organism-based
[5] = Cytotoxicity against MDCK cells assessed as maximal non-cytotoxic concentration by MTT assay; format: cell-based, Canis lupus familiaris; conditions: dog, read-out: MNCC
[6] = Selectivity index, ratio of CC50 to MDCK cells to IC50 to Influenza A Jinan/15/90 H3N2 virus; format: functional

T1 sequence (B4URF0 whole entry): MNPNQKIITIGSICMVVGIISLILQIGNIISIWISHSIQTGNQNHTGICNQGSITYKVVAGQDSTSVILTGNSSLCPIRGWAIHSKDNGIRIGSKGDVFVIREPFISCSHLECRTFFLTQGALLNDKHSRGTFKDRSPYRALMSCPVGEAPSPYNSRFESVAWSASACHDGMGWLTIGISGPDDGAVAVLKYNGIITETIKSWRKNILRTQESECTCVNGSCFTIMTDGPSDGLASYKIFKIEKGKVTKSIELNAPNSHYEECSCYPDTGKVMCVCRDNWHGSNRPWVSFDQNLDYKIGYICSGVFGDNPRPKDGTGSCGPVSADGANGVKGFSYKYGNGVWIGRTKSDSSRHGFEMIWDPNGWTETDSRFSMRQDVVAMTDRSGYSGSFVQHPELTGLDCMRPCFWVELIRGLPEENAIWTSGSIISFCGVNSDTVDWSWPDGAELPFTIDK

SMILES | IC50 (Neuraminidase [1]) | IC50 (Neuraminidase [2]) | IC50 (Neuraminidase [3]) | CC50 [4] | IC50 (Influenza A virus) | MNTC [5] | Ratio CC50/IC50 [6]
O=C1/C(=C\c2ccccc2)Oc2cc(O)ccc21 | 73.3 µM | 72 µM | 86.6 µM |  |  |  | 
O=C1/C(=C\c2ccc(O)cc2)Oc2cc(O)cc(O)c21 | 22.3 µM | 25.6 µM | 25.4 µM | > 741 µM | > 741 µM | > 741 µM | 
O=C1/C(=C\c2ccc(O)cc2)Oc2cc(O)ccc21 | 22.1 µM | 22 µM | 22.9 µM | 152 µM | 15.7 µM | 87.5 µM | 9.64
Oc1cc(O)c2c(c1)O[C@@H](c1ccc(O)c(O)c1)[C@@H](O)C2 [(+)-EPICATECHIN] | > 100 µM | > 100 µM | > 100 µM |  |  |  | 
O=c1cc(-c2ccc(O)cc2)oc2cc(O)cc(O)c12 [APIGENIN] | 28.9 µM | 31.6 µM | 45.7 µM | 39.6 µM | 4.74 µM | 7.63 µM | 8.35
Oc1cc(O)c2c(c1)O[C@H](c1ccc(O)c(O)c1)[C@@H](O)C2 [CATECHIN] | > 100 µM | > 100 µM | > 100 µM |  |  |  | 
O=c1cc(-c2ccccc2)oc2cc(O)cc(O)c12 [CHRYSIN] | 33.4 µM | 45.7 µM | 52.9 µM |  |  |  | 
O=c1c(-c2ccc(O)cc2)coc2cc(O)ccc12 [DAIDZEIN] | 26.6 µM | 37.1 µM | 46.8 µM | > 787 µM | > 787 µM | > 787 µM | 
COc1ccc(-c2coc3cc(O)ccc3c2=O)cc1 [FORMONONETIN] | > 100 µM | > 100 µM | > 100 µM |  |  |  | 
O=c1cc(-c2ccc(O)c(O)c2)oc2cc(O[C@@H]3O[C@H](CO)[C@@H](O)[C@H](O)[C@H]3O)cc(O)c12 [GALUTEOLIN] | 52.2 µM | 47.4 µM | 58.6 µM | > 1120 µM | > 1120 µM | > 1120 µM | 
O=c1c(-c2ccc(O)cc2)coc2cc(O)cc(O)c12 [GENISTEIN] | 134 µM | 77.1 µM | 83.3 µM |  |  |  | 
COc1ccc([C@@H]2CC(=O)c3c(O)cc(O[C@@H]4O[C@H](CO[C@@H]5O[C@@H](C)[C@H](O)[C@@H](O)[C@H]5O)[C@@H](O)[C@H](O)[C@H]4O)cc3O2)cc1O [HESPERIDIN] | > 100 µM | > 100 µM | > 100 µM |  |  |  | 
COc1c(O)cc2oc(-c3ccc(O)cc3)cc(=O)c2c1O [HISPIDULIN] | 26 µM | 46.3 µM | 33.2 µM | 172 µM | 24.7 µM | 24.7 µM | 6.98
O=c1c(O)c(-c2ccc(O)cc2)oc2cc(O)cc(O)c12 [KAEMPFEROL] | 38.1 µM | 58.6 µM | 46.4 µM |  |  |  | 
O=C1C[C@@H](c2ccc(O[C@@H]3O[C@H](CO)[C@@H](O)[C@H](O)[C@H]3O)cc2)Oc2cc(O)ccc21 [LIQUIRITIN] | > 100 µM | > 100 µM | > 100 µM |  |  |  | 
O=c1cc(-c2ccc(O)c(O)c2)oc2cc(O)cc(O)c12 [LUTEOLIN] | 32.6 µM | 33.7 µM | 53.3 µM | 12.4 µM | 6.82 µM | 7.2 µM | 1.82
O=c1c(O)c(-c2cc(O)c(O)c(O)c2)oc2cc(O)cc(O)c12 [MYRICETIN] | 46.2 µM | 82.6 µM | 75.4 µM |  |  |  | 
O=C1C[C@@H](c2ccc(O)cc2)Oc2cc(O)cc(O)c21 [NARINGENIN] | > 100 µM | > 100 µM | > 100 µM |  |  |  | 
CCC(CC)O[C@@H]1C=C(C(=O)O)C[C@H](N)[C@H]1NC(C)=O [OSELTAMIVIR CARBOXYLATE] |  |  |  | 17.1 µM | 0.15 µM | 1.02 µM | 
O=c1c(O)c(-c2ccc(O)c(O)c2)oc2cc(O)cc(O)c12 [QUERCETIN] | 87.6 µM | 58.4 µM | 67.5 µM |  |  |  | 
COc1cc(O)c2c(=O)c(O)c(-c3ccc(O)cc3)oc2c1 [RHAMNOCITRIN] | 83.9 µM | 51.5 µM | 62 µM |  |  |  | 
NC(=O)c1ncn([C@@H]2O[C@H](CO)[C@@H](O)[C@H]2O)n1 [RIBAVIRIN] |  |  |  | > 512 µM | 25.6 µM |  | >19.98
C[C@@H]1O[C@@H](OC[C@H]2O[C@@H](Oc3c(-c4ccc(O)c(O)c4)oc4cc(O)cc(O)c4c3=O)[C@H](O)[C@@H](O)[C@@H]2O)[C@H](O)[C@H](O)[C@H]1O [RUTIN] | 87.7 µM | 52.2 µM | > 100 µM |  |  |  | 
O=C(O)[C@H]1O[C@@H](Oc2cc3oc(-c4ccc(O)cc4)cc(=O)c3c(O)c2O)[C@H](O)[C@@H](O)[C@@H]1O [SCUTELLARIN] | 47.3 µM | 50.6 µM | 59.9 µM |  |  |  | 
O=c1c(-c2ccc(O[C@@H]3O[C@H](CO)[C@@H](O)[C@H](O)[C@H]3O)cc2)coc2cc(O)cc(O)c12 [SOPHORICOSIDE] | > 100 µM | > 100 µM | > 100 µM |  |  |  | 
O=C1/C(=C/c2ccc(O)c(O)c2)Oc2cc(O)ccc21 [SULFURETIN] | 51.2 µM | 29.6 µM | 36.2 µM | 27.4 µM | > 9.15 µM | 9.15 µM | 
O=c1cc(-c2ccc(O)cc2)oc2c([C@@H]3O[C@H](CO)[C@@H](O)[C@H](O)[C@H]3O)c(O)cc(O)c12 [VITEXIN] | 45.1 µM | 46.5 µM | 49.6 µM |  |  |  | 
